Here are results for 18 compounds from publication PMC3277886, “High-affinity fluorescent ligands for the 5-HT3 receptor” (Bioorganic & Medicinal Chemistry Letters, 2012).

Structures are written as SMILES. Read-outs that look alike come from different tables or passages of the source.

For assay [1], the target named is T1, human 5-HT3AR (Homo sapiens, UniProt P46098).
T1 construct: expressed in transfected cells
T1 sequence (P46098 24-478): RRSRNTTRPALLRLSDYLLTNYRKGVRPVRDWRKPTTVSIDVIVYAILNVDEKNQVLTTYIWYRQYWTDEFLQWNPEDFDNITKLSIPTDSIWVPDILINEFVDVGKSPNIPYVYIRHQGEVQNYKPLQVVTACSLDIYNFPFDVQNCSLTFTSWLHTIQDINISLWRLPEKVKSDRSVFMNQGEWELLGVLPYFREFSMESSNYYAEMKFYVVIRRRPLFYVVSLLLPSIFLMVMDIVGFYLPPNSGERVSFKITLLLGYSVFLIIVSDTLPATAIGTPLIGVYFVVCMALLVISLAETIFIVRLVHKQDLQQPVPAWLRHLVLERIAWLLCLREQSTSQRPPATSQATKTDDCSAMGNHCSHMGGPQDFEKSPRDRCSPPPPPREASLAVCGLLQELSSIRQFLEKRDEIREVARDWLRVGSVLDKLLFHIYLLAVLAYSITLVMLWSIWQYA
The conditions noted are these: read-out: Ki (nM) mean ± SEM; cited from earlier work.

For assay [2], the target named is T1, human 5-HT3AR. In words: competition binding studies with [3H]granisetron. On the procedure:
The photophysical properties of fluorescent granisetron derivatives were measured in MeOH and/or phosphate buffer at pH 7 (Table 1). […]. […] The binding affinities of the fluorescent granisetron probes for the human 5-HT3AR were determined by competition binding studies with [^3H]granisetron. […]. In terms of probe design it appears that optimal binding is obtained if the fluorophore is conjugated to N1 of granisetron via a short (butyl) aliphatic spacer. […]
(5) Radioligand binding and fluorescence microscopy
Materials, cell culture maintenance, receptor expression and radioligand binding for […]

For a further assay, the target named is T2, human 5-HT3A receptors (Homo sapiens, UniProt P46098).
T2 construct: myc; expressed in transfected cells; host or cells: COS-7
T2 sequence (P46098 24-478): T1 sequence (P46098 24-478)
In words: live cell imaging (fluorescence microscopy) of COS-7 cells transiently transfected with human 5-HT3A receptors. The assay is classed as cell-based. The conditions noted are these: 100 nM probe; for selectivity of staining: 5-HT3A-transfected versus mock transfected cells / detectable staining of cells: 1 h; for selectivity of staining: 5-HT3A-transfected versus mock transfected cells / inhibition of staining by co-incubation with ondansetron: live COS-7 cells; for selectivity of staining: 5-HT3A-transfected versus mock transfected cells: transfected vs mock transfected; for detectable staining of cells: HBS buffer, room temperature, live COS-7 cells transfected with human 5-HT3A; for inhibition of staining by co-incubation with ondansetron: co-incubation with ondansetron (OND) 10 μM. On the procedure:
The utility of granisetron probes 16–18, 26–28 and 36 to fluorescently label the receptor was studied using live cell imaging of COS-7 cells transiently transfected with human 5-HT3A receptors.
Figure 2 Fluorescent labeling of human 5-HT3AR in live COS-7 cells. Cells were either transfected with human 5HT3A cDNA (left and middle panels), or mock transfected (right panels). 24 h later they were incubated with 100 nM of probes 16, 18 or 28 in HBS buffer for 1 h at room temperature in the dark. The cells were imaged using a fluorescence microscope set to the appropriate absorption/emission wavelengths (Table 1). Some cells were also co-incubated with 10 μM ondansetron (OND, middle panels) to block 5-HT3 receptors. Scale bar represents 50 μm. […]
(5) Radioligand binding and fluorescence microscopy […]
For the fluorescence microscopy experiments COS-7 cells were transiently transfected with human 5-HT3A-myc cDNA (10 µg per transfection of […]) by electroporation (400 V, ∞ Ω, 125 µF), and grown on coverslips for 24 hours. Cells were washed with HBS then incubated with 100 nM of each probe (diluted in HBS) for 1 hour at room temperature in the dark. In some experiments 10 µM unlabelled ondansetron (OND) was co-incubated with the probes. Excess probe was removed by washing four times in HBS, and coverslips were placed in an imaging chamber with 1 ml HBS. Cells were then imaged using a fluorescence microscope set to the appropriate emission/excitation wavelengths. […]

Setting [3] is: human 5-HT3AR, competition with [3H]granisetron, read-out: Ki (nM) mean ± SEM.

Turning to `COc1cccc2c1c(C(=O)NC1CC3CCCC(C1)N3C)nn2C` (stereo not drawn) [Probe 2], the inhibition constant Ki on human 5-HT3AR [1] is 26 ± 7 nM.

On to `COc1cccc2c(C(=O)NC3CC4CCCC(C3)N4C)nn(C)c12` (stereo not drawn) [Probe 5], for which the Ki at human 5-HT3AR [1] is 71 ± 8 nM.

With `Cc1cc(C)n2c1C=C1C=CC(CCC(=O)NCCCn3nc(C(=O)NC4CC5CCCC(C4)N5C)c4ccccc43)=[N+]1[B-]2(F)F` (stereo not drawn) [Probe 6], on human 5-HT3AR [1], the Ki is 2.8 ± 0.7 nM.

Turning to `COc1ccc(C2=[N+]3C(=Cc4c(C)c(CCC(=O)NCCCCCC(=O)NCCCn5nc(C(=O)NC6CC7CCCC(C6)N7C)c6ccccc65)c(C)n4[B-]3(F)F)C=C2)cc1` (stereo not drawn) [Probe 14], affinity at human 5-HT3AR [2] was put at a Ki of 0.9 ± 0.3 nM.

Turning to `CCN(CC)c1ccc2cc(C(=O)NCCCn3nc(C(=O)NC4CC5CCCC(C4)N5C)c4ccccc43)c(=O)oc2c1` (stereo not drawn) [Probe 15], at human 5-HT3AR [2], the Ki worked out at 199 ± 39 nM.

For the compound `CN1C2CCCC1CC(NC(=O)c1nn(CCCNC(=S)Nc3ccc(-c4c5ccc(=O)cc-5oc5cc(O)ccc45)c(C(=O)O)c3)c3ccccc13)C2` (stereo not drawn) [Probe 16], the inhibition constant Ki on human 5-HT3AR [2] (setting [3]) is 1.6 ± 0.3 nM. Further, at human 5-HT3A receptors, the “selectivity of staining: 5-HT3A-transfected versus mock transfected cells” value (shortened to “selectivity of staining”) is given as “selective staining for 5-HT3R”, the “detectable staining of cells” value is “detectable staining” and the “inhibition of staining by co-incubation with ondansetron” value (“inhibition of staining by co-incubation” for short) is recorded as “inhibited by co-incubation with the 5-HT3R antagonist ondansetron”.

In the case of `CCN(CC)c1ccc2cc(C(=O)NCCCCn3nc(C(=O)NC4CC5CCCC(C4)N5C)c4ccccc43)c(=O)oc2c1` (stereo not drawn) [Probe 17], the Ki on human 5-HT3AR [2] (setting [3]) is 7.3 ± 2.5 nM.

In turn, `CN1C2CCCC1CC(NC(=O)c1nn(CCCCNC(=S)Nc3ccc(-c4c5ccc(=O)cc-5oc5cc(O)ccc45)c(C(=O)O)c3)c3ccccc13)C2` (stereo not drawn) [Probe 18] yielded a Ki on human 5-HT3AR [2] of 1.1 ± 0.2 nM. At human 5-HT3A receptors, the “selectivity of staining” value is “selective staining for 5-HT3R”, the “detectable staining of cells” value is “detectable staining” and the “inhibition of staining by co-incubation” value is recorded as “inhibited by co-incubation with the 5-HT3R antagonist ondansetron”.

Turning to `CCN(CC)c1ccc2cc(C(=O)NCCOCCOCCn3nc(C(=O)NC4CC5CCCC(C4)N5C)c4ccccc43)c(=O)oc2c1` (stereo not drawn) [Probe 20], the Ki on human 5-HT3AR [2] (setting [3]) stood at 142 ± 5 nM.

Regarding `CN1C2CCCC1CC(NC(=O)c1nn(CCOCCOCCNC(=S)Nc3ccc(-c4c5ccc(=O)cc-5oc5cc(O)ccc45)c(C(=O)O)c3)c3ccccc13)C2` (stereo not drawn) [Probe 21], the Ki on human 5-HT3AR [2] (setting [3]) was 6300 nM.

In the case of `CCN(CC)c1ccc2c(-c3ccc(NC(=S)NCCOCCOCCn4nc(C(=O)NC5CC6CCCC(C5)N6C)c5ccccc54)cc3C(=O)[O-])c3ccc(=[N+](CC)CC)cc-3oc2c1` (stereo not drawn) [Probe 22], the inhibition constant (Ki) on human 5-HT3AR [2] (setting [3]) is 384 ± 68 nM.

Regarding `CN1C2CCCC1CC(NC(=O)c1nn(CCCNc3ccc([N+](=O)[O-])c4nonc34)c3ccccc13)C2` (stereo not drawn) [Probe 26], the Ki on human 5-HT3AR [2] (setting [3]) was found to be 8.7 ± 5.8 nM.

In the case of `CN(C)c1cccc2c(S(=O)(=O)NCCCn3nc(C(=O)N[C@H]4C[C@H]5CCC[C@@H](C4)N5C)c4ccccc43)cccc12` [Probe 27], on human 5-HT3AR [2] (setting [3]), the inhibitory constant (Ki) was found to be 1.2 ± 0.6 nM.

With `CC1=CC(C)=[N+]2C1=C(CCCOC(=O)CCCn1nc(C(=O)NC3CC4CCCC(C3)N4C)c3ccccc31)c1c(C)cc(C)n1[B-]2(F)F` (stereo not drawn) [Probe 28], at human 5-HT3AR [2] (setting [3]), the inhibitory constant (Ki) came to 1.6 ± 0.8 nM. Besides, on human 5-HT3A receptors, the “selectivity of staining” value is “intense fluorescence in both 5-HT3A- and mock-transfected cells”; the “detectable staining of cells” value is given as “detectable staining”; the “inhibition of staining by co-incubation” value is on record as “not blocked by ondansetron”.

Compound `CCN(CC)c1ccc2cc(C(=O)NCCOc3cccc4c(C(=O)NC5CC6CCCC(C5)N6C)nn(C)c34)c(=O)oc2c1` (stereo not drawn) [Probe 36] returned a Ki on human 5-HT3AR [2] of 1.9 ± 0.9 nM.

For the compound `CCN(CC)c1ccc2cc(C(=O)NCCCOc3cccc4c(C(=O)N[C@H]5C[C@H]6CCC[C@@H](C5)N6C)nn(C)c34)c(=O)oc2c1` [Probe 37], affinity on human 5-HT3AR [2] was put at a Ki of 157 ± 9 nM.

Turning to `CCN(CC)c1ccc2cc(C(=O)NCCOCCOCCOc3cccc4c(C(=O)N[C@@H]5C[C@H]6CCC[C@@H](C5)N6C)nn(C)c34)c(=O)oc2c1` [Probe 38], the Ki at human 5-HT3AR [2] (setting [3]) was found to be 1300 nM.

Regarding `CN1[C@@H]2CCC[C@H]1C[C@@H](NC(=O)c1nn(C)c3c(OCCOCCOCCNC(=S)Nc4ccc(-c5c6ccc(=O)cc-6oc6cc(O)ccc56)c(C(=O)O)c4)cccc13)C2` [Probe 39], the Ki at human 5-HT3AR [2] worked out at 208 ± 55 nM.
